# Measured values: PubChem BioAssay (NCI)
#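 Briefly, cells in 96-well plates were exposed to five compound concentrations for 48 h, and endpoints were estimated by linear interpolation. Definition used: TGI = concentration required for complete inhibition of growth.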
# How the values were obtained:
# Assay in all cases: inhibition of tumour cell growth, NCI panel, 48 h
# [1] = tested on: NCI-H460 lung
# [2] = tested on: OVCAR-3 ovarian
# [3] = tested on: HCC-2998 colon
# [4] = tested on: HS 578T breast
# [5] = tested on: NCI-H522 lung
# [6] = tested on: A498 renal
# [7] = tested on: PC-3 prostate
# [8] = tested on: COLO 205 colon
# [9] = tested on: MDA-MB-435
# [10] = tested on: NCI/ADR-RES ovarian
# [11] = tested on: NCI-H23 lung
# [12] = tested on: EKVX NSCLC
# [13] = tested on: SK-MEL-5 melanoma
# [14] = tested on: SK-MEL-2 melanoma
# [15] = tested on: HOP-62 NSCLC
# [16] = tested on: K-562 leukemia
# [17] = tested on: SF-268 CNS
# [18] = tested on: SW-620 colon
# [19] = tested on: MOLT-4 leukemia
# [20] = tested on: MDA-N
# [21] = tested on: UO-31 renal
# [22] = tested on: SK-OV-3 ovarian
# [23] = tested on: ACHN renal
# [24] = tested on: A549 NSCLC
# [25] = tested on: MDA-MB-231 breast
# [26] = tested on: OVCAR-4 ovarian
# [27] = tested on: SK-MEL-28 melanoma
# [28] = tested on: HL-60(TB) leukemia
# [29] = tested on: 786-0 renal
# [30] = tested on: NCI-H226 lung
# [31] = tested on: U251 CNS
# [32] = tested on: HT29 colon
# [33] = tested on: SF-539 CNS
# [34] = tested on: HOP-92 NSCLC
# [35] = tested on: CCRF-CEM leukemia
# [36] = tested on: UACC-257 melanoma
# [37] = tested on: SF-295 CNS
# [38] = tested on: MCF7 breast
# [39] = tested on: SNB-19 CNS
# [40] = tested on: HCT-116 colon
# [41] = tested on: DU-145 prostate
# [42] = tested on: UACC-62 melanoma
# [43] = tested on: KM12 colon
# [44] = tested on: RPMI-8226 leukemia
# [45] = tested on: SR leukemia
# [46] = tested on: OVCAR-8 ovarian
# [47] = tested on: RXF 393 renal
# [48] = tested on: HCT-15 colon
# [49] = tested on: T-47D breast
# [50] = tested on: CAKI-1 renal
# [51] = tested on: SNB-75 CNS
# [52] = tested on: BT-549 breast
# [53] = tested on: M14 melanoma
# [54] = tested on: TK-10 renal
# [55] = tested on: SN12C renal
# [56] = tested on: LOX IMVI melanoma
# [57] = tested on: OVCAR-5 ovarian
# [58] = tested on: IGROV1 ovarian
# [59] = tested on: MALME-3M melanoma
smiles,measurement,setting,value
CC(=O)NNc1nc(C)c(C(/C=C/c2ccccc2O)=N/N=C(N)N)s1,TGI,[1],> 100 µM
same,TGI,[2],> 100 µM
same,TGI,[3],> 100 µM
same,TGI,[4],> 100 µM
same,TGI,[5],> 100 µM
same,TGI,[6],> 100 µM
same,TGI,[7],> 100 µM
same,TGI,[8],> 100 µM
same,TGI,[9],> 100 µM
same,TGI,[10],> 100 µM
same,TGI,[11],> 100 µM
same,TGI,[12],> 100 µM
same,TGI,[13],> 100 µM
same,TGI,[14],> 100 µM
same,TGI,[15],> 100 µM
same,TGI,[16],> 100 µM
same,TGI,[17],> 100 µM
same,TGI,[18],> 100 µM
same,TGI,[19],> 100 µM
same,TGI,[20],> 100 µM
same,TGI,[21],> 100 µM
same,TGI,[22],> 100 µM
same,TGI,[23],> 100 µM
same,TGI,[24],> 100 µM
same,TGI,[25],> 100 µM
same,TGI,[26],> 100 µM
same,TGI,[27],> 100 µM
same,TGI,[28],> 100 µM
same,TGI,[29],> 100 µM
same,TGI,[30],> 100 µM
same,TGI,[31],> 100 µM
same,TGI,[32],> 100 µM
same,TGI,[33],> 100 µM
same,TGI,[34],> 100 µM
same,TGI,[35],> 100 µM
same,TGI,[36],> 100 µM
same,TGI,[37],> 100 µM
same,TGI,[38],> 100 µM
same,TGI,[39],> 100 µM
same,TGI,[40],> 100 µM
same,TGI,[41],> 100 µM
same,TGI,[42],> 100 µM
same,TGI,[43],> 100 µM
same,TGI,[44],> 100 µM
same,TGI,[45],> 100 µM
same,TGI,[46],> 100 µM
same,TGI,[47],> 100 µM
same,TGI,[48],> 100 µM
same,TGI,[49],> 100 µM
same,TGI,[50],> 100 µM
same,TGI,[51],> 100 µM
same,TGI,[52],> 100 µM
same,TGI,[53],> 100 µM
same,TGI,[54],> 100 µM
same,TGI,[55],> 100 µM
same,TGI,[56],> 100 µM
same,TGI,[57],> 100 µM
same,TGI,[58],> 100 µM
same,TGI,[59],> 100 µM
CCOC(=O)/C=C(/C(=O)OCC)n1ccc(=O)n(Cc2cnnn2COCCOC(C)=O)c1=O,TGI,[1],> 65 µM
same,TGI,[2],31 µM
same,TGI,[3],31.5 µM
same,TGI,[4],56.7 µM
same,TGI,[5],4.65 µM
same,TGI,[6],65 µM
same,TGI,[7],34.2 µM
same,TGI,[8],9.73 µM
same,TGI,[9],32.5 µM
same,TGI,[10],61.9 µM
same,TGI,[11],33.3 µM
same,TGI,[12],33.8 µM
same,TGI,[13],38.2 µM
same,TGI,[14],41.9 µM
same,TGI,[15],> 100 µM
same,TGI,[16],> 100 µM
same,TGI,[17],44.4 µM
same,TGI,[18],14.2 µM
same,TGI,[19],23.4 µM
same,TGI,[20],46.3 µM
same,TGI,[21],29.6 µM
same,TGI,[22],> 100 µM
same,TGI,[23],22.1 µM
same,TGI,[24],> 100 µM
same,TGI,[25],38.7 µM
same,TGI,[26],41.5 µM
same,TGI,[27],32.2 µM
same,TGI,[29],29.2 µM
same,TGI,[30],57.3 µM
same,TGI,[31],37.8 µM
same,TGI,[32],32 µM
same,TGI,[33],25.7 µM
same,TGI,[34],6.81 µM
same,TGI,[35],3.57 µM
same,TGI,[36],31.3 µM
same,TGI,[37],> 100 µM
same,TGI,[38],27.7 µM
same,TGI,[39],> 31.6 µM
same,TGI,[40],45.8 µM
same,TGI,[41],42.9 µM
same,TGI,[42],32.8 µM
same,TGI,[43],> 56.4 µM
same,TGI,[44],51.2 µM
same,TGI,[45],45.7 µM
same,TGI,[46],30.6 µM
same,TGI,[47],39 µM
same,TGI,[48],31 µM
same,TGI,[49],29.2 µM
same,TGI,[50],11.4 µM
same,TGI,[51],> 100 µM
same,TGI,[52],38.2 µM
same,TGI,[53],38.8 µM
same,TGI,[54],22.2 µM
same,TGI,[55],47.9 µM
same,TGI,[56],37.3 µM
same,TGI,[57],35.9 µM
same,TGI,[58],39.3 µM
same,TGI,[59],26.3 µM
O=[S@]1c2ccc3ccccc3c2N[C@@H]2[C@H]1[C@H]1C=C[C@@H]2C1,TGI,[1],> 100 µM
same,TGI,[2],37.6 µM
same,TGI,[4],> 100 µM
same,TGI,[5],55.4 µM
same,TGI,[6],> 100 µM
same,TGI,[7],> 100 µM
same,TGI,[8],> 100 µM
same,TGI,[9],99.6 µM
same,TGI,[10],99.7 µM
same,TGI,[11],> 100 µM
same,TGI,[12],> 100 µM
same,TGI,[13],> 100 µM
same,TGI,[14],> 100 µM
same,TGI,[15],> 100 µM
same,TGI,[16],> 100 µM
same,TGI,[17],> 100 µM
same,TGI,[18],> 100 µM
same,TGI,[19],> 100 µM
same,TGI,[20],60.8 µM
same,TGI,[21],> 100 µM
same,TGI,[22],> 100 µM
same,TGI,[23],> 100 µM
same,TGI,[24],> 100 µM
same,TGI,[25],> 100 µM
same,TGI,[26],> 100 µM
same,TGI,[27],> 100 µM
same,TGI,[28],63 µM
same,TGI,[29],> 100 µM
same,TGI,[30],> 100 µM
same,TGI,[31],> 100 µM
same,TGI,[32],> 100 µM
same,TGI,[33],> 100 µM
same,TGI,[34],> 100 µM
same,TGI,[35],68.4 µM
same,TGI,[36],> 100 µM
same,TGI,[37],> 100 µM
same,TGI,[38],> 100 µM
same,TGI,[39],> 100 µM
same,TGI,[40],> 100 µM
same,TGI,[41],> 100 µM
same,TGI,[42],> 100 µM
same,TGI,[43],> 100 µM
same,TGI,[44],> 100 µM
same,TGI,[45],> 100 µM
same,TGI,[46],> 100 µM
same,TGI,[47],95.1 µM
same,TGI,[48],> 100 µM
same,TGI,[49],> 100 µM
same,TGI,[50],> 100 µM
same,TGI,[51],73.4 µM
same,TGI,[52],> 100 µM
same,TGI,[53],> 100 µM
same,TGI,[54],> 100 µM
same,TGI,[55],> 100 µM
same,TGI,[56],> 100 µM
same,TGI,[57],> 100 µM
same,TGI,[58],> 100 µM
same,TGI,[59],> 100 µM
NS(=O)(=O)c1cc(C(=O)O)c(O)c2ccccc12,TGI,[1],> 100 µM
same,TGI,[2],> 100 µM
same,TGI,[4],> 100 µM
same,TGI,[5],> 100 µM
same,TGI,[6],> 100 µM
same,TGI,[7],> 100 µM
same,TGI,[8],> 100 µM
same,TGI,[9],> 100 µM
same,TGI,[10],> 100 µM
same,TGI,[11],> 100 µM
same,TGI,[12],> 100 µM
same,TGI,[13],> 100 µM
same,TGI,[14],> 100 µM
same,TGI,[15],> 100 µM
same,TGI,[16],> 100 µM
same,TGI,[17],> 100 µM
same,TGI,[18],> 100 µM
same,TGI,[19],> 100 µM
same,TGI,[20],> 100 µM
same,TGI,[21],> 100 µM
same,TGI,[22],> 100 µM
same,TGI,[23],> 100 µM
same,TGI,[24],> 100 µM
same,TGI,[25],> 100 µM
same,TGI,[26],> 100 µM
same,TGI,[27],> 100 µM
same,TGI,[28],> 100 µM
same,TGI,[29],> 100 µM
same,TGI,[30],> 100 µM
same,TGI,[31],> 100 µM
same,TGI,[32],> 100 µM
same,TGI,[33],> 100 µM
same,TGI,[34],> 100 µM
same,TGI,[35],> 100 µM
same,TGI,[36],> 100 µM
same,TGI,[37],> 100 µM
same,TGI,[38],> 100 µM
same,TGI,[39],> 100 µM
same,TGI,[40],> 100 µM
same,TGI,[41],> 100 µM
same,TGI,[42],> 100 µM
same,TGI,[43],> 100 µM
same,TGI,[44],> 100 µM
same,TGI,[45],> 100 µM
same,TGI,[46],> 100 µM
same,TGI,[47],> 100 µM
same,TGI,[48],> 100 µM
same,TGI,[49],> 100 µM
same,TGI,[50],> 100 µM
same,TGI,[51],> 100 µM
same,TGI,[52],> 100 µM
same,TGI,[53],> 100 µM
same,TGI,[54],> 100 µM
same,TGI,[55],> 100 µM
same,TGI,[56],> 100 µM
same,TGI,[57],> 100 µM
same,TGI,[58],> 100 µM
same,TGI,[59],> 100 µM
